Marks after values point to notes of the source that are not given here.

The target of the first assay is T1, Human recombinant PTP1B (Homo sapiens, UniProt P18031).
T1 construct: made in house
T1 sequence (P18031 1-435): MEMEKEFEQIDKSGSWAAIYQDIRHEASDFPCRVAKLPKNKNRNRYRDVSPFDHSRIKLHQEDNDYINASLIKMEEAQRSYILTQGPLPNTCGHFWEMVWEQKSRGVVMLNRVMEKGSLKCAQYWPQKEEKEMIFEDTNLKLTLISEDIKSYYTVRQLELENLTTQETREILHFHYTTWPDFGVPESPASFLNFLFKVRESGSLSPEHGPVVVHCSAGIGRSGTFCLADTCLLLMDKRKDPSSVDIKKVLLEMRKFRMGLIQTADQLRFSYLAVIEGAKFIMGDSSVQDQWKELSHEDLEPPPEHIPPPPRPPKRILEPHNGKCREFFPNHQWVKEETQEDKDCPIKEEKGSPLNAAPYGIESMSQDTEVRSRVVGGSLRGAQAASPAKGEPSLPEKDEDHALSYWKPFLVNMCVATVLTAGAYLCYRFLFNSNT
Nature of the assay: Inhibition of tri-phosphorylated insulin receptor dodecaphosphopeptide dephosphorylation by hPTP1B (malachite green-ammonium molybdate phosphate detection). In kind it is biochemical. The settings on record: substrate phosphotyrosyl dodecapeptide […] (insulin receptor 1142-1153), 37°C, 30 min, pH 7.4.
In general, IC50 refers to the concentration needed to halve the response being measured. With `O=C(O)c1ccc(S(=O)(=O)Oc2ccc(-c3ccc(-c4c(Cc5ccccc5)oc5ccccc45)cc3)cc2)cc1O` [Example 1, 4-[4'-(2-Benzyl-benzofuran-3-yl)-biphenyl-4-yloxysulfonyl]-2-hydroxy-benzoic acid], the IC50 came out at 39 nM. `O=C(O)c1cc(S(=O)(=O)Oc2ccc(-c3ccc(-c4c(Cc5ccccc5)oc5ccccc45)cc3)cc2)ccc1O` [Example 2, 5-[4'-(2-Benzyl-benzofuran-3-yl)-biphenyl-4-yloxysulfonyl]-2-hydroxy-benzoic acid]: the IC50 was determined as 26 nM. As to `O=C(O)c1ccc(S(=O)(=O)Oc2ccc(-c3ccc(-c4c(Cc5ccccc5)oc5ccccc45)cc3)cc2)cc1` [Example 3, 4-[4'-(2-Benzyl-benzofuran-3-yl)-biphenyl-4-yloxysulfonyl]-benzoic acid], the IC50 worked out at 75 nM. Take `O=C(O)c1cccc(S(=O)(=O)Oc2ccc(-c3ccc(-c4c(Cc5ccccc5)oc5ccccc45)cc3)cc2)c1` [Example 4, 3-[4'-(2-Benzyl-benzofuran-3-yl)-biphenyl-4-yloxysulfonyl]-benzoic acid]: the IC50 is 106 nM. For `O=C(O)c1ccc(S(=O)(=O)Oc2ccc(-c3ccc(-c4coc5ccccc45)cc3)cc2)cc1O` [Example 5], the IC50 turned out to be 354 nM. Regarding `Cc1cc(-c2ccc(-c3c(Cc4ccccc4)oc4ccccc34)cc2)cc(C)c1OS(=O)(=O)c1ccc(C(=O)O)c(O)c1` [Example 6, 4-[4'-(2-Benzyl-benzofuran-3-yl)-3,5-dimethyl-biphenyl-4-yloxysulfonyl]-2-hydroxy-benzoic acid], the half-maximal inhibitory concentration (IC50) stood at 34 nM. On to `O=C(O)c1ccc(S(=O)(=O)Oc2ccc(-c3ccc(-c4c(Cc5ccccc5)oc5ccccc45)cc3)cc2[N+](=O)[O-])cc1O` [Example 7, 4-[4'-(2-Benzyl-benzofuran-3-yl)-3-nitro-biphenyl-4-yloxysulfonyl]-2-hydroxy-benzoic acid], for which the IC50 was determined as 29 nM. With `O=C(O)c1ccc(S(=O)(=O)Oc2ccc(-c3ccc(-c4c(C(=O)c5ccccc5)oc5ccccc45)cc3)cc2[N+](=O)[O-])cc1O` [Example 8, 4-[4'-(2-Benzoyl-benzofuran-3-yl)-3-nitro-biphenyl-4-yloxysulfonyl]-2-hydroxy-benzoic acid], the IC50 was 178 nM. On the same count and under the same terms, as for `O=C(O)c1ccc(S(=O)(=O)Oc2ccc(-c3ccc(-c4c(C(=O)c5ccccc5)oc5ccccc45)cc3)cc2C2CCCC2)cc1O` [Example 9, 4-[4'-(2-Benzoyl-benzofuran-3-yl)-3-cyclopentyl-biphenyl-4-yloxysulfonyl]-2-hydroxy-benzoic acid], the figure is 40 nM.

As to `Cc1sc(Cc2ccccc2)c(-c2ccc(-c3ccc(OS(=O)(=O)c4ccc(C(=O)O)c(O)c4)cc3)cc2)c1C` [Example 10, 4-[4'-(2-Benzyl-4,5-dimethyl-thiophen-3-yl)-biphenyl-4-yloxysulfonyl]-2-hydroxy-benzoic acid], the IC50 worked out at 32 nM. Still for that read-out and setting: as for `O=C(O)c1ccc(S(=O)(=O)Oc2ccc(-c3ccc(-c4c(Cc5ccccc5)sc5ccccc45)cc3)cc2)cc1O` [Example 11, 4-[4'-(2-Benzyl-benzo[b]thiophen-3-yl)-biphenyl-4-yloxysulfonyl]-2-hydroxy-benzoic acid], the figure is 28 nM; as for `O=C(O)c1ccc(S(=O)(=O)Oc2ccc(-c3ccc(-c4c(Cc5ccccc5)sc5ccccc45)cc3)cc2Br)cc1O` [Example 12, 4-[4'-(2-Benzyl-benzo[b]thiophen-3-yl)-3-bromo-biphenyl-4-yloxysulfonyl]-2-hydroxy-benzoic acid], 24 nM.

Consider `O=C(O)c1ccc(S(=O)(=O)Oc2c(Br)cc(-c3ccc(-c4c(Cc5ccccc5)sc5ccccc45)cc3)cc2Br)cc1O` [Example 13, 4-[4'-(2-Benzyl-benzo[b]thiophen-3-yl)-3,5-dibromo-biphenyl-4-yloxysulfonyl]-2-hydroxy-benzoic acid], for which the IC50 amounted to 30 nM.

The subject of another assay is diabetic (ob/ob) mice. Put plainly: Blood glucose lowering activity in diabetic (ob/ob) mice. In kind it is in vivo. The settings on record: Dose 25 mg/Kg, plasma glucose relative to vehicle treated mice, statistically (p < 0.05) significant. An excerpt: The procedures used and results obtained are briefly described below.
The non-insulin dependent diabetic (NIDDM) syndrome can be typically characterizes by obesity, hyperglycemia, abnormal insulin secretion, hyperinsulinemia and insulin resistance.
In each test procedure, mice [Male or female ob/ob (C57 B1/6J) and their lean litermates (ob/+ or +/+, Jackson Laboratories) ages 2 to 5 months (10 to 65 g)] of a similar age were randomized according to body weight into 4 groups of 10 mice. The mice were housed 5 per cage and are maintained on normal rodent chow with water ad libitum. Mice received test compound daily by gavage (suspended in 0.5 ml of 0.5% methyl cellulose); dissolved in the drinking water; or admixed in the diet. The dose of compounds given ranges from 2.5 to 200 mg/kg body weight/day. The dose is calculated based on the fed weekly body weight and is expressed as active moiety. […] Control mice received vehicle only.
On the morning of Day 4, 7 or 14 two drops of blood (approximetly 50 ul) were collected into sodium fluoride containing tubes either from the tail vein or after decapitation. […] The plasma was isolated by centrifugation and the concentration of glucose is measured enzymatically on an Abbott V.P. Analyzer.
For each mouse, the percentage change in plasma glucose on Day 4, 7 or 14 is calculated relative to the mean plasma glucose of the vehicle treated mice. […]
Consider `O=C(O)c1ccc(S(=O)(=O)Oc2c(Br)cc(-c3ccc(-c4c(Cc5ccccc5)sc5ccccc45)cc3)cc2Br)cc1O` [Example 13, 4-[4'-(2-Benzyl-benzo[b]thiophen-3-yl)-3,5-dibromo-biphenyl-4-yloxysulfonyl]-2-hydroxy-benzoic acid], for which the “% Change Glucose from Vehicle” value is recorded as -24.6^a %.

The values above are taken from patent publication EP1077966B1, “BIPHENYL SULFONYL ARYL CARBOXYLIC ACIDS USEFUL IN THE TREATMENT OF INSULIN RESISTANCE AND HYPERGLYCEMIA” (Wyeth, priority 1998, dated 1999).
